# Experimental data taken from patent publication US20110039819A1, “SUBSTITUTED PHENOXYBENZAMIDES” (priority 2008, published 2011).
# Target: T1, MEK1 (Homo sapiens, UniProt Q02750)
# T1 construct: purchased Millipore 14-420 (GST-MEK1); 14-703 (Cot1); host or cells: Cot1: insect cells (SF21)
# Test: MEK1 activation kinase assay (Assay 2, HTRF; Cot1 phosphorylates GST-MEK1)
# Assay type: biochemical
# Conditions: IC50 in MEK1 activation kinase assay, representative example compounds
# Procedure: MEK1 Activation Kinase Assay
# The kinase Cot1 activates MEK1 by phosphorylating its activation loop. The inhibitory activity of compounds of the present invention on this activation of MEK1 was quantified employing the HTRF assay described in the following paragraphs.
# As substrate for the kinase reaction the unactive C-terminally His6-tagged GST-MEK1 fusion protein (Millipore cat. no 14-420) was used.
# Then the kinase reaction was started by the addition of 2 μl of a solution of Cot1 in assay buffer and the resulting mixture was incubated for a reaction time of 20 min at 22° C. The concentration of Cot1 in the assay was adjusted depending of the activity of the enzyme lot and was chosen appropriate to have the assay in the linear range, typical enzyme concentrations were in the range of about 2 ng/μl (final conc. in the 5 μl assay volume).
# The resulting mixture was incubated 2 h at 22° C. to allow the binding of the phosphorylated GST-MEK1 to the anti-GST-XL665 and the Eu-cryptate labelled anti-phospho-MEK 1/2 antibody. Subsequently the amount of Ser217/Ser221-phosphorylated substrate was evaluated by measurement of the resonance energy transfer from the Eu-Cryptate-labelled anti-phospho-MEK antibody to the anti-GST-XL665.
# T1 sequence (Q02750 whole entry): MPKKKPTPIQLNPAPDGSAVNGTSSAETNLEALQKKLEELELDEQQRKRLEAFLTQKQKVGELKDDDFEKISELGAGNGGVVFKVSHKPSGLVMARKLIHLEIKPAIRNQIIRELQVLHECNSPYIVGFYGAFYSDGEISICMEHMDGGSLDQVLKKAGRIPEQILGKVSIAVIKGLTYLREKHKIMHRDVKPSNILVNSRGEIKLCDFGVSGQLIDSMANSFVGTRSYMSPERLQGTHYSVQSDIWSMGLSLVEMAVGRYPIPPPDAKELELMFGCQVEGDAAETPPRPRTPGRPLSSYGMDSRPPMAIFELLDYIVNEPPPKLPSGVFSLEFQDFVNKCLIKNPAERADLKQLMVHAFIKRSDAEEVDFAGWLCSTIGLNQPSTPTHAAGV
row,SMILES,IC50
1,"CNS(=O)(=O)Nc1cccc(Oc2cc(F)cc(Nc3ccc(I)cc3F)c2C(N)=O)c1 [Example 5.41, 2-[3-[[(methylamino)sulfonyl]amino]phenoxy]-4-fluoro-6-[(2-fluoro-4-iodophenyl)amino]-benzamide]",< 1000 nM

# Same assay, conditions: mean values from 2 or more measurements; read-out: Assay 2 IC50 values (nanomolar) (MEK1 activation kinase assay) (values are mean values from 2 or more measurements)
row,SMILES,IC50
1,"NC(=O)c1c(Nc2ccc(I)cc2F)cc(F)cc1Oc1cccc(NS(=O)(=O)N2CCOCC2)c1 [Example 5.24, 4-Fluoro-2-(2-fluoro-4-iodo-phenylamino)-6-[3-(morpholine-4-sulfonylamino)-phenoxy]-benzamide]",25.9 nM
2,"CN(C)C(=O)N1CCN(CCOc2cc(F)cc(Nc3ccc(I)cc3F)c2C(N)=O)CC1 [Example 5.30, 4-{2-[2-Carbamoyl-5-fluoro-3-(2-fluoro-4-iodo-phenylamino)-phenoxy]-ethyl}-piperazine-1-carboxylic acid dimethylamide]",138 nM
3,"CS(=O)(=O)N1CCN(CCOc2cc(F)cc(Nc3ccc(I)cc3F)c2C(N)=O)CC1 [Example 5.31, 4-Fluoro-2-(2-fluoro-4-iodo-phenylamino)-6-[2-(4-methanesulfonyl-piperazin-1-yl)-ethoxy]-benzamide]",153 nM
4,"CS(=O)(=O)N1CCC[C@@H]1COc1cc(F)cc(Nc2ccc(I)cc2F)c1C(N)=O [Example 5.32, 4-Fluoro-2-(2-fluoro-4-iodo-phenylamino)-6-((R)-1-methanesulfonyl-pyrrolidin-2-ylmethoxy)-benzamide]",35.4 nM
5,"CCS(=O)(=O)N1CCC[C@@H]1COc1cc(F)cc(Nc2ccc(I)cc2F)c1C(N)=O [Example 5.33, 2-((R)-1-Ethanesulfonyl-pyrrolidin-2-ylmethoxy)-4-fluoro-6-(2-fluoro-4-iodo-phenylamino)-benzamide]",91.6 nM
6,"CCS(=O)(=O)N1CCC[C@H]1COc1cc(F)cc(Nc2ccc(I)cc2F)c1C(N)=O [Example 5.34, 2-((S)-1-Ethanesulfonyl-pyrrolidin-2-ylmethoxy)-4-fluoro-6-(2-fluoro-4-iodo-phenylamino)-benzamide]",96.5 nM
7,"NC(=O)c1c(Nc2ccc(I)cc2F)cc(F)cc1Oc1cccc(NS(=O)(=O)C2CC2)c1 [Example 5.36, 2-(3- Cyclopropanesulfonylamino-phenoxy)-4-fluoro-6-(2-fluoro-4-iodo-phenylamino)-benzamide]",14.5 nM
8,"NC(=O)c1c(Nc2ccc(I)cc2F)cc(F)cc1Oc1cccc(NS(=O)(=O)C2CCCC2)c1 [Example 5.37, 2-(3- Cyclopentanesulfonylamino-phenoxy)-4-fluoro-6-(2-fluoro-4-iodo-phenylamino)-benzamide]",20.4 nM
9,"CCN(CC)S(=O)(=O)Nc1cccc(Oc2cc(F)cc(Nc3ccc(I)cc3F)c2C(N)=O)c1 [Example 5.38, 2-(3-diethylsulfamoyl-amino-phenoxy)-4-fluoro-6-(2-fluoro-4-iodo-phenylamino)-benzamide]",55.3 nM
10,"CC(=O)N1CCC[C@@H]1COc1cc(F)cc(Nc2ccc(I)cc2F)c1C(N)=O [Example 5.39, 2-((R)-1-Acetyl-pyrrolidin-2-ylmethoxy)-4-fluoro-6-(2-fluoro-4-iodo-phenylamino)-benzamide]",438 nM
11,"CNS(=O)(=O)Nc1cccc(Oc2cc(F)cc(Nc3ccc(I)cc3F)c2C(N)=O)c1 [Example 5.41, 2-[3-[[(methylamino)sulfonyl]amino]phenoxy]-4-fluoro-6-[(2-fluoro-4-iodophenyl)amino]-benzamide]",22.2 nM
12,"NC(=O)c1c(Nc2ccc(I)cc2F)cc(F)cc1Oc1cccc(NS(=O)(=O)C2CCC2)c1 [Example 5.48, 2-(3-Cyclobutanesulfonyl-amino-phenoxy)-4-fluoro-6-(2-fluoro-4-iodo-phenylamino)-benzamide]",16.9 nM
13,"NC(=O)c1c(Nc2ccc(I)cc2F)cc(F)cc1Oc1cccc(NS(=O)(=O)c2c[nH]cn2)c1 [Example 5.49, 4-Fluoro-2-(2-fluoro-4-iodo-phenylamino)-6-[3-(1H-imidazole-4-sulfonylamino)-phenoxy]-benzamide]",15.7 nM
14,"CN(C)S(=O)(=O)NCc1cccc(Oc2cc(F)cc(Nc3ccc(I)cc3F)c2C(N)=O)c1 [Example 5.67, 6-[3-(dimethyl-aminosulfonylamino-methyl)-phenoxy]-4-fluoro-2-(2-fluoro-4-iodo-phenylamino)-6-benzamide]",63.4 nM
15,"CS(=O)(=O)NCc1cccc(Oc2cc(F)cc(Nc3ccc(I)cc3F)c2C(N)=O)c1 [Example 5.68, 4-Fluoro-2-(2-fluoro-4-iodo-phenylamino)-6-[3-(methane-sulfonylamino-methyl)-phenoxy]-benzamide]",43.2 nM
16,"CC(=O)NCc1cccc(Oc2cc(F)cc(Nc3ccc(I)cc3F)c2C(N)=O)c1 [Example 5.69, 2-[3-(Acetylamino-methyl)-phenoxy]-4-fluoro-6-(2-fluoro-4-iodo-phenylamino)-benzamide]",18.3 nM

row,SMILES,IC50
1,"NC(=O)c1c(Nc2ccc(I)cc2F)cc(F)cc1Oc1cccc(NC(=O)c2ccsc2)c1 [Example 5.75, Thiophene-3-carboxylic acid {3-[2-carbamoyl-5-fluoro-3-(2-fluoro-4-iodo-phenylamino)-phenoxy]-phenyl}-amide]",103 nM
2,"NC(=O)c1c(Nc2ccc(I)cc2F)cc(F)cc1Oc1cccc(NC(=O)c2csnn2)c1 [Example 5.76, [1,2,3]Thiadiazole-4-carboxylic acid {3-[2-carbamoyl-5-fluoro-3-(2-fluoro-4-iodo-phenylamino)-phenoxy]-phenyl}-amide]",70.3 nM
3,"NC(=O)c1c(Nc2ccc(I)cc2F)cc(F)cc1Oc1cccc(NC(=O)c2ccoc2)c1 [Example 5.77, Furan-3-carboxylic acid {3-[2-carbamoyl-5-fluoro-3-(2-fluoro-4-iodo-phenylamino)-phenoxy]-phenyl}-amide]",127 nM
4,"NC(=O)c1c(Nc2ccc(I)cc2F)cc(F)cc1Oc1cccc(NC(=O)c2ccno2)c1 [Example 5.78, Isoxazole-5-carboxylic acid {3-[2-carbamoyl-5-fluoro-3-(2-fluoro-4-iodo-phenylamino)-phenoxy]-phenyl}-amide]",86.2 nM
5,"NC(=O)c1c(Nc2ccc(I)cc2F)cc(F)cc1Oc1cccc(NC(=O)c2cn[nH]c2)c1 [Example 5.79, 1H-Pyrazole-4-carboxylic acid {3-[2-carbamoyl-5-fluoro-3-(2-fluoro-4-iodo-phenylamino)-phenoxy]-phenyl}-amide]",77.8 nM
6,"NC(=O)c1c(Nc2ccc(I)cc2F)cc(F)cc1Oc1cccc(NC(=O)C2CCC2)c1 [Example 5.80, 2-[3-(Cyclo-butanecarbonyl-amino)-phenoxy]-4-fluoro-6-(2-fluoro-4-iodo-phenylamino)-benzamide]",137 nM
7,"NC(=O)c1c(Nc2ccc(I)cc2F)cc(F)cc1Oc1cccc(NC(=O)c2cc[nH]n2)c1 [Example 5.81, 1H-Pyrazole-3-carboxylic acid {3-[2-carbamoyl-5-fluoro-3-(2-fluoro-4-iodo-phenylamino)-phenoxy]-phenyl}-amide]",96.4 nM
8,"Cn1cncc1C(=O)Nc1cccc(Oc2cc(F)cc(Nc3ccc(I)cc3F)c2C(N)=O)c1 [Example 5.82, 3-Methyl-3H-imidazole-4-carboxylic acid {3-[2-carbamoyl-5-fluoro-3-(2-fluoro-4-iodo-phenylamino)-phenoxy]-phenyl}-amide]",49.9 nM
9,"Cc1nocc1C(=O)Nc1cccc(Oc2cc(F)cc(Nc3ccc(I)cc3F)c2C(N)=O)c1 [Example 5.83, 3-Methyl-isoxazole-4-carboxylic acid {3-[2-carbamoyl-5-fluoro-3-(2-fluoro-4-iodo-phenylamino)-phenoxy]-phenyl}-amide]",143 nM
10,"NC(=O)c1c(Nc2ccc(I)cc2F)cc(F)cc1Oc1cccc(NC(=O)c2ccon2)c1 [Example 5.84, Isoxazole-3-carboxylic acid {3-[2-carbamoyl-5-fluoro-3-(2-fluoro-4-iodo-phenylamino)-phenoxy]-phenyl}-amide]",75.4 nM
11,"NC(=O)c1c(Nc2ccc(I)cc2F)cc(F)cc1Oc1cncc(NS(=O)(=O)c2c[nH]cn2)c1 [Example 5.93, 4-Fluoro-2-(2-fluoro-4-iodo-phenylamino)-6-[5-(1H-imidazole-4-sulfonylamino)-pyridin-3-yloxy]-benzamide]",86 nM
12,"NC(=O)c1c(Nc2ccc(I)cc2F)cc(F)cc1Oc1cccc(NS(=O)(=O)NCC(F)(F)F)c1 [Example 5.94, 4-fluoro-2-[(2-fluoro-4-iodophenyl)amino]-6-(3-{[(2,2,2-trifluoroethyl)-sulfamoyl]amino}phenoxy)benzamide]",55.5 nM
13,"COCCS(=O)(=O)Nc1cccc(Oc2cc(F)cc(Nc3ccc(I)cc3F)c2C(N)=O)c1 [Example 5.95, 4-fluoro-2-[(2-fluoro-4-iodophenyl)amino]-6-(3-{[(2-methoxyethyl)sulfonyl]amino}phenoxy)benzamide]",25.1 nM
14,"CC(C)(O)C(O)CCOc1cc(F)cc(Nc2ccc(I)cc2F)c1C(N)=O (stereo not drawn) [Example 6.1, 2-(3,4-Dihydroxy-4-methyl-pentyloxy)-4-fluoro-6-(2-fluoro-4-iodo-phenylamino)-benzamide]",19.7 nM
15,"CC(O)(CO)CCOc1cc(F)cc(Nc2ccc(I)cc2F)c1C(N)=O (stereo not drawn) [Example 6.2, 2-(3,4-Dihydroxy-3-methyl-butoxy)-4-fluoro-6-(2-fluoro-4-iodo-phenylamino)-benzamide]",69.3 nM
16,"C#Cc1ccc(Nc2cc(F)cc(Oc3cccc(NS(=O)(=O)N(C)C)c3)c2C(N)=O)c(F)c1 [Example 7.2, 2-[3-[[(dimethylamino)sulfonyl]amino]phenoxy]-4-fluoro-6-[(4-ethynyl-2-fluorophenyl)amino]-benzamide]",13.5 nM

# Same assay, conditions: representative example compounds; read-out: IC50 in MEK1 activation kinase assay
row,SMILES,IC50
1,"NC(=O)c1c(Nc2ccc(I)cc2F)cc(F)cc1Oc1cccc(NS(=O)(=O)N2CCOCC2)c1 [Example 5.24, 4-Fluoro-2-(2-fluoro-4-iodo-phenylamino)-6-[3-(morpholine-4-sulfonylamino)-phenoxy]-benzamide]",< 1000 nM
2,"NC(=O)c1c(Nc2ccc(I)cc2F)cc(F)cc1Oc1cccc(NS(=O)(=O)C2CCC2)c1 [Example 5.48, 2-(3-Cyclobutanesulfonyl-amino-phenoxy)-4-fluoro-6-(2-fluoro-4-iodo-phenylamino)-benzamide]",< 1000 nM
3,"NC(=O)c1c(Nc2ccc(I)cc2F)cc(F)cc1Oc1cccc(NS(=O)(=O)c2c[nH]cn2)c1 [Example 5.49, 4-Fluoro-2-(2-fluoro-4-iodo-phenylamino)-6-[3-(1H-imidazole-4-sulfonylamino)-phenoxy]-benzamide]",< 1000 nM
